According to article PMC8159961, “Exploring protein hotspots by optimized fragment pharmacophores” (Nature Communications, 2021):
Entries after “also recorded” stand apart in the source; their conditions may differ. Like-named read-outs stand apart in the source and are kept apart here.

Columns and labels:
human 5-HT6 receptor = target: T1, human 5-HT6 receptor (Homo sapiens, UniProt P50406); assay: GPCR radioligand binding assay, [3H]-LSD displacement, HEK293 membranes; conditions: for experimental hit status, 5-HT6: 1 = hit, 0 = no hit, tested at 10 µM, hit = 50% or stronger inhibition
T1 construct: expressed in transfected cells

human thrombin = target: T2, human thrombin (Homo sapiens, UniProt P00734); assay: Protease inhibitory assay, chromogenic substrate S-2238; type: biochemical; conditions: 1 = hit, 0 = no hit; screening at 200 µM
T2 construct: human thrombin; purchased Sigma-Aldrich

SARS-CoV-2 = assay: microbe, parasite or virus in culture; type: cell-based; conditions: for antiviral activity in the cellular assay (in words): infected Vero E6 cells
[1] = target: T3, SARS-CoV-2 NSP3 macrodomain (Severe acute respiratory syndrome coronavirus 2, UniProt P0DTD1); assay: X-ray fragment screening (XChem, crystal soaking); type: binding
[2] = target: T3, SARS-CoV-2 NSP3 macrodomain; assay: NSP3 macrodomain HTRF assay, displacement of ADP-ribose-conjugated biotin peptide; type: binding
human 5-HT1A receptor = target: T4, human 5-HT1A receptor (Homo sapiens, UniProt P08908); assay: GPCR radioligand binding assay, [3H]-8-OH-DPAT displacement, HEK293 membranes; conditions: for experimental hit status, 5-HT1: 1 = hit, 0 = no hit, tested at 10 µM, hit = 50% or stronger inhibition
T4 construct: expressed in transfected cells
T4 sequence (P08908 1-422): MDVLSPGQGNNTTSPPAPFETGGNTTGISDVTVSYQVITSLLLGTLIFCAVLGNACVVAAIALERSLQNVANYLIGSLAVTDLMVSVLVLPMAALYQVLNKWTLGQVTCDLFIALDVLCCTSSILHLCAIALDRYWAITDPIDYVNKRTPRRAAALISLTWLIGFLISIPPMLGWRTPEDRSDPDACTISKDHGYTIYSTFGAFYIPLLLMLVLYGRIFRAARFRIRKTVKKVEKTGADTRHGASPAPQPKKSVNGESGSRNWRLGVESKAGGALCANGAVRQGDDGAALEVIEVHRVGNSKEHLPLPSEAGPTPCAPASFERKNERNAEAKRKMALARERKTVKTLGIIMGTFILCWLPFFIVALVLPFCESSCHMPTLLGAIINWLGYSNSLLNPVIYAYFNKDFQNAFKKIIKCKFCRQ

bovine factor Xa = target: T5, bovine factor Xa (Bos taurus, UniProt P00743); assay: Protease inhibitory assay, chromogenic substrate S-2222; type: biochemical; conditions: 1 = hit, 0 = no hit; screening at 200 µM
T5 construct: bovine factor Xa, Chromogenix, 2 nkat/mL; purchased Chromogenix

recombinant SETD2 = target: T6, recombinant SETD2 (Homo sapiens, UniProt Q9BYW2); assay: SETD2 Chemiluminescence assay (H3K36 tri-methylation); type: biochemical; conditions: 1 = hit, 0 = no hit
T6 construct: purchased BPS Bioscience 52060
T6 sequence (Q9BYW2 1418-1714 limits assumed): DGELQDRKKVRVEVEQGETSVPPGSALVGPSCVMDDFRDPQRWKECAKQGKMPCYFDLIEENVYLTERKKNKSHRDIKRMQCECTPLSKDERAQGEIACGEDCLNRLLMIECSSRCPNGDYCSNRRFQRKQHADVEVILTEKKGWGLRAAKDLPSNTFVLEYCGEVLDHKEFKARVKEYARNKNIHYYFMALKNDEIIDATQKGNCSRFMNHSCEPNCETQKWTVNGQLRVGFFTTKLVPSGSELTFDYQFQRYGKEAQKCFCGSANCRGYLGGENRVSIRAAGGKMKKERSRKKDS

human 5-HT7b receptor = target: T7, human 5-HT7b receptor (Homo sapiens, UniProt P34969); assay: GPCR radioligand binding assay, [3H]-5-CT displacement, HEK293 membranes; conditions: for experimental hit status, 5-HT7: 1 = hit, 0 = no hit, tested at 10 µM, hit = 50% or stronger inhibition
T7 construct: expressed in transfected cells

[3] = 10 µM, read-out: 5-HT6 % Inhibition by plate position
[4] = 5-HT6, average of exp_1 and exp_2, read-out: %inh 5-HT6 average
[5] = 5-HT6, average, values below 0 and above 100% were set as 0 and 100, read-out: %inh 5-HT6 corrected*
[6] = 5-HT6, replicate exp_1, read-out: %inh 5-HT6 exp_1
[7] = 5-HT6, replicate exp_2, read-out: %inh 5-HT6 exp_2
[8] = 10 µM, read-out: 5-HT1A % Inhibition by plate position
[9] = 5-HT1A, average of exp_1 and exp_2, read-out: %inh 5-HT1A average
[10] = 5-HT1A, average, values below 0 and above 100% were set as 0 and 100, read-out: %inh 5-HT1A corrected*
[11] = 5-HT1A, replicate exp_1, read-out: %inh 5-HT1A exp_1
[12] = 5-HT1A, replicate exp_2, read-out: %inh 5-HT1A exp_2
[13] = 10 µM, read-out: 5-HT7 % Inhibition by plate position
[14] = 5-HT7, average of exp_1 and exp_2, read-out: %inh 5-HT7 average
[15] = 5-HT7, average, values below 0 and above 100% were set as 0 and 100, read-out: %inh 5-HT7 corrected*
[16] = 5-HT7, replicate exp_1, read-out: %inh 5-HT7 exp_1
[17] = 5-HT7, replicate exp_2, read-out: %inh 5-HT7 exp_2

T1 sequence (P50406 whole entry): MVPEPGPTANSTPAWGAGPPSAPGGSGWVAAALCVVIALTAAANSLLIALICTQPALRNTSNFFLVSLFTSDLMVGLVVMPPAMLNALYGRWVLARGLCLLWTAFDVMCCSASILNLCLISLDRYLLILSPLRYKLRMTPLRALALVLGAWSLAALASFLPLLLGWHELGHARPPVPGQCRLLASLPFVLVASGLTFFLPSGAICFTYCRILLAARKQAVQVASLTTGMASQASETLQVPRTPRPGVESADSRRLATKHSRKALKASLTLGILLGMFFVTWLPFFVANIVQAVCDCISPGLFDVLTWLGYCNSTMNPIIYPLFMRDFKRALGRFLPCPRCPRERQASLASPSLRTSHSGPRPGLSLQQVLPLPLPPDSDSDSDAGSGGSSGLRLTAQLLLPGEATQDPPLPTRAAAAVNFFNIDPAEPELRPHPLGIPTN
T7 sequence (P34969 1-432): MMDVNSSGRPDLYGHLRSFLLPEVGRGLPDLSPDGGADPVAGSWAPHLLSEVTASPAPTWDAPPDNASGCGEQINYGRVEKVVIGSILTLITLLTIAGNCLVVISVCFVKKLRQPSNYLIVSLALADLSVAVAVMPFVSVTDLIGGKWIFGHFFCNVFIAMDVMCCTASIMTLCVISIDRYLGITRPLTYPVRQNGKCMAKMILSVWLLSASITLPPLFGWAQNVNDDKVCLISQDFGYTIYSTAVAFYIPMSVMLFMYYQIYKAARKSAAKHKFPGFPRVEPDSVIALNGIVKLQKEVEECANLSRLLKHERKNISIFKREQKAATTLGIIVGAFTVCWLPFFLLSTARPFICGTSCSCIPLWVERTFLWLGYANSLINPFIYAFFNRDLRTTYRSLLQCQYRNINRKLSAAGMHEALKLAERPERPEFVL
T5 sequence (P00743 234-492 limits assumed): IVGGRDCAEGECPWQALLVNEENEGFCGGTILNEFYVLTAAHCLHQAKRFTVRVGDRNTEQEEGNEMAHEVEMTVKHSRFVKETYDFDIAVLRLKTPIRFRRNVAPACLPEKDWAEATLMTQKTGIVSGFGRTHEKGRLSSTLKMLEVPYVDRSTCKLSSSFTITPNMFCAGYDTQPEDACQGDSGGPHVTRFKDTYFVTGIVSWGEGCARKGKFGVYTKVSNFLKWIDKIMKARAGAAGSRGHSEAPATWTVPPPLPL
T5 sequence (P00743 41-180 partner limits assumed): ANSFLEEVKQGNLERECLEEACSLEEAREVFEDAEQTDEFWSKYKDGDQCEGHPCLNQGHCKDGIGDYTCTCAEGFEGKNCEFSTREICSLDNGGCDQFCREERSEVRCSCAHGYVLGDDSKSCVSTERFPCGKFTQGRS

SMILES: c1cnc2ncccc2c1 [SX003]
- inhibition at 10 µM (human 5-HT6 receptor; [3]): 48%
- experimental hit status, 5-HT6 (human 5-HT6 receptor): 0
- inhibition at 10 µM (human 5-HT6 receptor; [4]): 48%
- inhibition at 10 µM (human 5-HT6 receptor; [5]): 48%
- inhibition at 10 µM (human 5-HT6 receptor; [6]): 55%
- inhibition at 10 µM (human 5-HT6 receptor; [7]): 41%
- experimental hit status, Thrombin (human thrombin): 0
- antiviral activity in the cellular assay (in words) (SARS-CoV-2): inactive in cells
- X-ray screen result, binding site [1]: identified in the active site
- activity in the NSP3 enzyme assay (in words) ([2]; HTRF assay, up to 5 mM concentration): no activity
- inhibition at 10 µM (human 5-HT1A receptor; [8]): 22%
- experimental hit status, 5-HT1 (human 5-HT1A receptor): 0
- inhibition at 10 µM (human 5-HT1A receptor; [9]): 22%
- inhibition at 10 µM (human 5-HT1A receptor; [10]): 22%
- inhibition at 10 µM (human 5-HT1A receptor; [11]): 24%
- inhibition at 10 µM (human 5-HT1A receptor; [12]): 21%
- experimental hit status, Factor Xa (bovine factor Xa): 0
- experimental hit status, SETD2 (recombinant SETD2): 0
- inhibition at 10 µM (human 5-HT7b receptor; [13]): 34%
- experimental hit status, 5-HT7 (human 5-HT7b receptor): 0
- inhibition at 10 µM (human 5-HT7b receptor; [14]): 34%
- inhibition at 10 µM (human 5-HT7b receptor; [15]): 34%
- inhibition at 10 µM (human 5-HT7b receptor; [16]): 32%
- inhibition at 10 µM (human 5-HT7b receptor; [17]): 36%

SMILES: Nc1nnc2ccccn12 [SX005]
- inhibition at 10 µM (human 5-HT6 receptor; [3]): 40%
- experimental hit status, 5-HT6 (human 5-HT6 receptor): 0
- inhibition at 10 µM (human 5-HT6 receptor; [4]): 40%
- inhibition at 10 µM (human 5-HT6 receptor; [5]): 40%
- inhibition at 10 µM (human 5-HT6 receptor; [6]): 45%
- inhibition at 10 µM (human 5-HT6 receptor; [7]): 35%
- experimental hit status, Thrombin (human thrombin): 0
- inhibition at 1000 µM (SARS-CoV-2; Severe acute respiratory syndrome coronavirus 2, Vero C1008, read-out: Inhibition (%) of viral copy numbers, 1000 uM, replicates): 83.7%
- antiviral activity in the cellular assay (in words) (SARS-CoV-2): high micromolar range; also recorded: Significant antiviral activities
- X-ray screen result, binding site [1]: identified in the active site
- % SARS-CoV-2 macrodomain inhibition ([2]; 39.0625 µM, replicates): 11.4%
- inhibition at 39.0625 µM ([2]; 39.0625 µM, replicates): 10.2%
- % SARS-CoV-2 macrodomain inhibition ([2]; 78.125 µM, replicates): 23.5%
- inhibition at 78.125 µM ([2]; 78.125 µM, replicates): 22.6%
- % SARS-CoV-2 macrodomain inhibition ([2]; 156.25 µM, replicates): 31.2%
- inhibition at 156.25 µM ([2]; 156.25 µM, replicates): 27.9%
- % SARS-CoV-2 macrodomain inhibition ([2]; 312.5 µM, replicates): 41.8%
- inhibition at 312.5 µM ([2]; 312.5 µM, replicates): 41%
- % SARS-CoV-2 macrodomain inhibition ([2]; 625 µM, replicates): 55.4%
- inhibition at 625 µM ([2]; 625 µM, replicates): 54.1%
- % SARS-CoV-2 macrodomain inhibition ([2]; 1250 µM, replicates): 64.7%
- inhibition at 1250 µM ([2]; 1250 µM, replicates): 65%
- % SARS-CoV-2 macrodomain inhibition ([2]; 2500 µM, replicates): 70.5%
- inhibition at 2500 µM ([2]; 2500 µM, replicates): 72%
- % SARS-CoV-2 macrodomain inhibition ([2]; 5000 µM, replicates): 74.9%
- inhibition at 5000 µM ([2]; 5000 µM, replicates): 74.7%
- IC50 ([2]; IC50, SARS-CoV-2 macrodomain inhibition): 465 µM
- inhibition at 10 µM (human 5-HT1A receptor; [8]): 0%
- experimental hit status, 5-HT1 (human 5-HT1A receptor): 0
- inhibition at 10 µM (human 5-HT1A receptor; [9]): -14%
- inhibition at 10 µM (human 5-HT1A receptor; [10]): 0%
- inhibition at 10 µM (human 5-HT1A receptor; [11]): 4%
- inhibition at 10 µM (human 5-HT1A receptor; [12]): -32%
- experimental hit status, Factor Xa (bovine factor Xa): 0
- experimental hit status, SETD2 (recombinant SETD2): 0
- inhibition at 10 µM (human 5-HT7b receptor; [13]): 0%
- experimental hit status, 5-HT7 (human 5-HT7b receptor): 0
- inhibition at 10 µM (human 5-HT7b receptor; [14]): -0.039%
- inhibition at 10 µM (human 5-HT7b receptor; [15]): 0%
- inhibition at 10 µM (human 5-HT7b receptor; [16]): -4.51%
- inhibition at 10 µM (human 5-HT7b receptor; [17]): 4.43%
